Results reported in ChEMBL document CHEMBL1909046, “DrugMatrix in vitro pharmacology data”.

What was measured:
[1] = biological target: 5-hydroxytryptamine receptor 4 (Cavia porcellus, UniProt O70528); format: cell membranes, Dunkin-Hartley, Striatum, Membrane; note: in other assays of this panel Not Active means under 50% inhibition at 10 µM
Cytochrome P450 2D6 = Cytochrome P450 2D6 (Homo sapiens, UniProt P10635); conditions: bti-tn-5b1-4; note: in other assays of this panel Not Active means under 50% inhibition at 10 µM
Melanocortin receptor 5 = Melanocortin receptor 5 (Homo sapiens, UniProt P33032); format: cell membranes, HEK293, Membrane; conditions: hek293; note: in other assays of this panel Not Active means under 50% inhibition at 10 µM
[2] = biological target: Mitogen-activated protein kinase 1 (Homo sapiens, UniProt P28482); assay: DRUGMATRIX: Protein Serine/Threonine Kinase, ERK2 enzyme inhibition (substrate: Myelin Basic Protein); design: species or system Escherichia coli; conditions: Not Active = under 50% inhibition at 10 µM
Cannabinoid receptor 1 = Cannabinoid receptor 1 (Homo sapiens, UniProt P21554); format: cell membranes, Chem-1, Membrane; conditions: chem-1; note: in other assays of this panel Not Active means under 50% inhibition at 10 µM
[3] = DRUGMATRIX: beta-Lactamase enzyme inhibition (substrate: Nitrocefin); design: species or system Bacillus cereus; conditions: Not Active = under 50% inhibition at 10 µM
Endothelin-1 receptor = biological target: T1, Endothelin-1 receptor (Homo sapiens, UniProt P25101); format: cell membranes, Membrane; conditions: cho-k1; note: in other assays of this panel Not Active means under 50% inhibition at 10 µM
T1 sequence (P25101 whole entry): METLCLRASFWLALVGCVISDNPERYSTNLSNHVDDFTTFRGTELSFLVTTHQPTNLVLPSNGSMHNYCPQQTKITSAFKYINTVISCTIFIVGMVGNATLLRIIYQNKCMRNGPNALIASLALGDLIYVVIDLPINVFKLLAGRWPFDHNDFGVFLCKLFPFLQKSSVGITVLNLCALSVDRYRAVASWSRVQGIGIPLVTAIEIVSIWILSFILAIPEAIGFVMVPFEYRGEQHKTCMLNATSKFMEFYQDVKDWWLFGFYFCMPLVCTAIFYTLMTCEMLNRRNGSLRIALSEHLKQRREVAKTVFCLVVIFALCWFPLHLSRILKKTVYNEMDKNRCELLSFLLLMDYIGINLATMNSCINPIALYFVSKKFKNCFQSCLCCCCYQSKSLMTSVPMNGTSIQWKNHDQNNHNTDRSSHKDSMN

[4] = biological target: T2, 5-hydroxytryptamine receptor 1A (Rattus norvegicus, UniProt P19327); format: cell membranes, CHO-K1, Membrane; note: in other assays of this panel Not Active means under 50% inhibition at 10 µM
T2 sequence (P19327 whole entry): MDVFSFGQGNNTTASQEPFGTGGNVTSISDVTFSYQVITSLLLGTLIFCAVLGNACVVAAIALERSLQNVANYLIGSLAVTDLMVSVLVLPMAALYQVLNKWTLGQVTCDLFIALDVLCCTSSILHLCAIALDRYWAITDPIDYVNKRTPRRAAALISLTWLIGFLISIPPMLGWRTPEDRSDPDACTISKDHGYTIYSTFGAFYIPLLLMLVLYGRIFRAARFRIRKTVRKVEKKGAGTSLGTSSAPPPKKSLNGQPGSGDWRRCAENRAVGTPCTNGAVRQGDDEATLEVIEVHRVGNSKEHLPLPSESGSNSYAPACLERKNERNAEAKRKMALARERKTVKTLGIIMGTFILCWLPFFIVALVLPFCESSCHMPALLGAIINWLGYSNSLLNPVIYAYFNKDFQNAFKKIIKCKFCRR

5-hydroxytryptamine receptor 4, sequence (O70528 whole entry): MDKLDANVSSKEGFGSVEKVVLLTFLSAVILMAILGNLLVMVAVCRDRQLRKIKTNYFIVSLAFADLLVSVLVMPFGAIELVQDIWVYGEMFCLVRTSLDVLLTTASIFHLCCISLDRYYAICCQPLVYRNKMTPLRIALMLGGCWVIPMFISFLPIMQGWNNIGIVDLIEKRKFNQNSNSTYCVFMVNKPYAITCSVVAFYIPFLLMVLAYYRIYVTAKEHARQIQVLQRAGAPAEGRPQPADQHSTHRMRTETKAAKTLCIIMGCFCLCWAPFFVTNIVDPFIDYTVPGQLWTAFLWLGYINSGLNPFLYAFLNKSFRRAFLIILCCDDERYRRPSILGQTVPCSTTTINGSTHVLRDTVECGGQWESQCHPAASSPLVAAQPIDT
Cytochrome P450 2D6, sequence (P10635 whole entry): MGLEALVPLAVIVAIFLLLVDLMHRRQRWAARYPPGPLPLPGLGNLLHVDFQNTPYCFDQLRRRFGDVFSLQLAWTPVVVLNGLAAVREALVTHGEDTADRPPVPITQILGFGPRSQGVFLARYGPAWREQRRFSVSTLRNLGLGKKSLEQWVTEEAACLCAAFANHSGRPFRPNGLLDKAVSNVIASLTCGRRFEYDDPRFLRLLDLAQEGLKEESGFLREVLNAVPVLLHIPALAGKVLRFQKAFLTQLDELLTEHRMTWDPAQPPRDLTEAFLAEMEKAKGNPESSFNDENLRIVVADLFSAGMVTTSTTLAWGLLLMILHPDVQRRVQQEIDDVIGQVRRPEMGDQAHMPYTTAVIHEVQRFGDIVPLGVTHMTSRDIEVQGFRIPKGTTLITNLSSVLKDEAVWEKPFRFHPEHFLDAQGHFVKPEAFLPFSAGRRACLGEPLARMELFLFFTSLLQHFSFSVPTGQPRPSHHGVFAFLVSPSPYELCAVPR
Mitogen-activated protein kinase 1, sequence (P28482 whole entry): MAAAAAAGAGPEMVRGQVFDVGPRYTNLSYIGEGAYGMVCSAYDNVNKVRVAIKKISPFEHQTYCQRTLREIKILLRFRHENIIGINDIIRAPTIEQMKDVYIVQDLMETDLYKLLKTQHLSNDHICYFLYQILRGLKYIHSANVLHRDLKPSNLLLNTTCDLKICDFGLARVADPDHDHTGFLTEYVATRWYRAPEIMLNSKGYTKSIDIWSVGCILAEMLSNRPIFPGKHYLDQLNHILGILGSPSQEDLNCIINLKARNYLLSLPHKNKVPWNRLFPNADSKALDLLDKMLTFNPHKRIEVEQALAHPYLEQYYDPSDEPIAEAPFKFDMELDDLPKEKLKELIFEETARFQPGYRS
Melanocortin receptor 5, sequence (P33032 whole entry): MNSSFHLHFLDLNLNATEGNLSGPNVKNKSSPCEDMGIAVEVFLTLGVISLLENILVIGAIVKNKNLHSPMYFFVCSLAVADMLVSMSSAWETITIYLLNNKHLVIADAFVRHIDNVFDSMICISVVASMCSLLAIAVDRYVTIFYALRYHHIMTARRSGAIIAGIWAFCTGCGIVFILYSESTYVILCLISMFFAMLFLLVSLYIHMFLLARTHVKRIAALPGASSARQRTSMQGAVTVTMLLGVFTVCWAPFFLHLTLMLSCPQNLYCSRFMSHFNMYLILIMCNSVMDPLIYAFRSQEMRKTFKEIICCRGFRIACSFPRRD
Cannabinoid receptor 1, sequence (P21554 whole entry): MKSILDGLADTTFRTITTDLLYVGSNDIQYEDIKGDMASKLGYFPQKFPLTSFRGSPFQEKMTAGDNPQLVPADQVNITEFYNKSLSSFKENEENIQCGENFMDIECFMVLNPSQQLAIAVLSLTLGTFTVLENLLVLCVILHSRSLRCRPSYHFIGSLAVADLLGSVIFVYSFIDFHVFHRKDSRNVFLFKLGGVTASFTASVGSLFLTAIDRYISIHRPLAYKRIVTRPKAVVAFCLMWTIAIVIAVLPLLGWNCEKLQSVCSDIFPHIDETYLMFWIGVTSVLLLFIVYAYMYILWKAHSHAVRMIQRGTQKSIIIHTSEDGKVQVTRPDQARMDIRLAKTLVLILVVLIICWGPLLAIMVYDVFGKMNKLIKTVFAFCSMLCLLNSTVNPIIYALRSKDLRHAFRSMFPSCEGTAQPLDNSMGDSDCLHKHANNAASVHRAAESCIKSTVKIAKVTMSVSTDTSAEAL

In the case of `CCOC(=O)c1ncn2c1CN(C)C(=O)c1cc(F)ccc1-2` [FLUMAZENIL], the IC50 [1] is reported as “Not Active”, the IC50 (Cytochrome P450 2D6) is reported as “Not Active” and the Ki (Cytochrome P450 2D6) is reported as “Not Active”. For the same molecule, the IC50 (Melanocortin receptor 5) was “Not Active”, the IC50 [2] was “Not Active” and the IC50 (Cannabinoid receptor 1) was “Not Active”. For the same molecule, the IC50 [3] was “Not Active”, the Ki [3] was “Not Active” and the IC50 (Endothelin-1 receptor) was “Not Active”. For the same molecule, the IC50 ([4]; cho-k1) was “Not Active”.
For `O=C(O)P(=O)(O)O` [FOSCARNET], the IC50 [1] was “Not Active”, the IC50 (Cytochrome P450 2D6) was “Not Active” and the Ki (Cytochrome P450 2D6) was “Not Active”. For the same molecule, the IC50 (Melanocortin receptor 5) was “Not Active”, the IC50 [2] was “Not Active” and the IC50 (Cannabinoid receptor 1) was “Not Active”. For the same molecule, the IC50 [3] was “Not Active”, the Ki [3] was “Not Active” and the IC50 (Endothelin-1 receptor) was “Not Active”. The IC50 ([4]; cho-k1) was “Not Active”.
In the case of `Cc1ccc(C)c(OCCCC(C)(C)C(=O)O)c1` [GEMFIBROZIL], the IC50 [1] is reported as “Not Active”, the IC50 (Cytochrome P450 2D6) is reported as “Not Active” and the Ki (Cytochrome P450 2D6) is reported as “Not Active”. For the same molecule, the IC50 (Melanocortin receptor 5) was “Not Active”, the IC50 [2] was “Not Active” and the IC50 (Cannabinoid receptor 1) was “Not Active”. For the same molecule, the IC50 [3] was “Not Active”, the Ki [3] was “Not Active” and the IC50 (Endothelin-1 receptor) was “Not Active”. For the same molecule, the IC50 ([4]; cho-k1) was “Not Active”.
For `O=c1c(-c2ccc(O)cc2)coc2cc(O)cc(O)c12` [GENISTEIN], the IC50 [1] was “Not Active”, the IC50 (Cytochrome P450 2D6) was “Not Active” and the Ki (Cytochrome P450 2D6) was “Not Active”. For the same molecule, the IC50 (Melanocortin receptor 5) was “Not Active”, the IC50 [2] was “Not Active” and the IC50 (Cannabinoid receptor 1) was “Not Active”. For the same molecule, the IC50 [3] was “Not Active”, the Ki [3] was “Not Active” and the IC50 (Endothelin-1 receptor) was “Not Active”. The IC50 ([4]; cho-k1) was “Not Active”.
For `CCC1=C(C)CN(C(=O)NCCc2ccc(S(=O)(=O)NC(=O)N[C@H]3CC[C@H](C)CC3)cc2)C1=O` [GLIMEPIRIDE], the IC50 [1] was “Not Active”, the IC50 (Cytochrome P450 2D6) was “Not Active” and the Ki (Cytochrome P450 2D6) was “Not Active”. The IC50 (Melanocortin receptor 5) was “Not Active”, the IC50 [2] was “Not Active” and the IC50 (Cannabinoid receptor 1) was “Not Active”. The IC50 [3] was “Not Active”, the Ki [3] was “Not Active” and the IC50 (Endothelin-1 receptor) was “Not Active”. For the same molecule, the IC50 ([4]; cho-k1) was “Not Active”.
In the case of `Nc1cc(-c2ccncc2)c[nH]c1=O` [INAMRINONE], the IC50 [1] is reported as “Not Active”, the IC50 (Cytochrome P450 2D6) is reported as “Not Active” and the Ki (Cytochrome P450 2D6) is reported as “Not Active”. For the same molecule, the IC50 (Melanocortin receptor 5) was “Not Active”, the IC50 [2] was “Not Active” and the IC50 (Cannabinoid receptor 1) was “Not Active”. The IC50 [3] was “Not Active”, the Ki [3] was “Not Active” and the IC50 (Endothelin-1 receptor) was “Not Active”. For the same molecule, the IC50 ([4]; cho-k1) was “Not Active”.
In the case of `CCCCC1=NC2(CCCC2)C(=O)N1Cc1ccc(-c2ccccc2-c2nnn[nH]2)cc1` [IRBESARTAN], the IC50 [1] is reported as “Not Active”, the IC50 (Cytochrome P450 2D6) is reported as “Not Active” and the Ki (Cytochrome P450 2D6) is reported as “Not Active”. The IC50 (Melanocortin receptor 5) was “Not Active”, the IC50 [2] was “Not Active” and the IC50 (Cannabinoid receptor 1) was “Not Active”. The IC50 [3] was “Not Active”, the Ki [3] was “Not Active” and the IC50 (Endothelin-1 receptor) was “Not Active”. For the same molecule, the IC50 ([4]; cho-k1) was “Not Active”.
In the case of `CN1CCC(=C2c3ccccc3CC(=O)c3sccc32)CC1` [KETOTIFEN], the IC50 [1] is reported as “Not Active”, the IC50 (Cytochrome P450 2D6) is reported as “Not Active” and the Ki (Cytochrome P450 2D6) is reported as “Not Active”. For the same molecule, the IC50 (Melanocortin receptor 5) was “Not Active”, the IC50 [2] was “Not Active” and the IC50 (Cannabinoid receptor 1) was “Not Active”. For the same molecule, the IC50 [3] was “Not Active”, the Ki [3] was “Not Active” and the IC50 (Endothelin-1 receptor) was “Not Active”. The IC50 ([4]; read-out: IC50) was 2.54 µM and the Ki ([4]; read-out: Ki) was 1.45 µM.
For `C[N+](C)(C)C[C@H](O)CC(=O)[O-]` [LEVOCARNITINE], the IC50 [1] was “Not Active”, the IC50 (Cytochrome P450 2D6) was “Not Active” and the Ki (Cytochrome P450 2D6) was “Not Active”. For the same molecule, the IC50 (Melanocortin receptor 5) was “Not Active”, the IC50 [2] was “Not Active” and the IC50 (Cannabinoid receptor 1) was “Not Active”. For the same molecule, the IC50 [3] was “Not Active”, the Ki [3] was “Not Active” and the IC50 (Endothelin-1 receptor) was “Not Active”. For the same molecule, the IC50 ([4]; cho-k1) was “Not Active”.
With `C[C@H]1COc2c(N3CCN(C)CC3)c(F)cc3c(=O)c(C(=O)O)cn1c23.C[C@H]1COc2c(N3CCN(C)CC3)c(F)cc3c(=O)c(C(=O)O)cn1c23.O` [LEVOFLOXACIN] the IC50 [1] was “Not Active”, the IC50 (Cytochrome P450 2D6) was “Not Active” and the Ki (Cytochrome P450 2D6) was “Not Active”. The IC50 (Melanocortin receptor 5) was “Not Active”, the IC50 [2] was “Not Active” and the IC50 (Cannabinoid receptor 1) was “Not Active”. For the same molecule, the IC50 [3] was “Not Active”, the Ki [3] was “Not Active” and the IC50 (Endothelin-1 receptor) was “Not Active”. For the same molecule, the IC50 ([4]; cho-k1) was “Not Active”.
With `CCn1cc(C(=O)O)c(=O)c2cc(F)c(N3CCNC(C)C3)c(F)c21` (stereo unspecified) [LOMEFLOXACIN] the IC50 [1] was “Not Active”, the IC50 (Cytochrome P450 2D6) was “Not Active” and the Ki (Cytochrome P450 2D6) was “Not Active”. The IC50 (Melanocortin receptor 5) was “Not Active”, the IC50 [2] was “Not Active” and the IC50 (Cannabinoid receptor 1) was “Not Active”. For the same molecule, the IC50 [3] was “Not Active”, the Ki [3] was “Not Active” and the IC50 (Endothelin-1 receptor) was “Not Active”. The IC50 ([4]; cho-k1) was “Not Active”.
In the case of `CN1CCCC(CN2c3ccccc3Sc3ccccc32)C1` (stereo unspecified) [MEPAZINE], the IC50 [1] is reported as “Not Active”, the IC50 (Cytochrome P450 2D6) is reported as “Not Active” and the Ki (Cytochrome P450 2D6) is reported as “Not Active”. For the same molecule, the IC50 (Melanocortin receptor 5) was “Not Active”, the IC50 [2] was “Not Active” and the IC50 (Cannabinoid receptor 1) was “Not Active”. For the same molecule, the IC50 [3] was “Not Active”, the Ki [3] was “Not Active” and the IC50 (Endothelin-1 receptor) was “Not Active”. For the same molecule, the IC50 ([4]; cho-k1) was “Not Active”.
